Assay results from the NIST ThermoML archive (doi:10.1007/s10765-009-0665-4).

Experiments:
[1] = 293.15 K; 101.33 kPa; Liquid; Sing-around technique in a fixed-path interferometer
[2] = xn = mol fraction of the nth substance listed; conditions: 293.15 K, 101 kPa, Liquid; for speed of sound: Sing-around technique in a fixed-path interferometer

CC(C)CO [2-methyl-1-propanol]
Conditions | speed of sound [m/s]
[1] | 1204.1

CCCCO [butan-1-ol]
Conditions | speed of sound [m/s]
[1] | 1256.3

C1CCCCC1 [cyclohexane]
Conditions | speed of sound [m/s]
[1] | 1279

C1CCCCC1 [cyclohexane] + CCCCO
[2]
Conditions | mass density [kg/m3] | speed of sound [m/s]
x2 = 0.00115 | 778.6 | 1278.7
x2 = 0.00245 | 778.5 | 1277.7
x2 = 0.0124 | 778.5 | 1274.6
x2 = 0.0262 | 778.7 | 1271.5
x2 = 0.04084 | 778.8 | 1269.3
x2 = 0.07249 | 779.3 | 1265.3
x2 = 0.1395 | 780.4 | 1258.6
x2 = 0.1897 | 781.4 | 1254.6
x2 = 0.3017 | 784 | 1248.8
x2 = 0.5175 | 790.4 | 1244.4
x2 = 0.6162 | 793.7 | 1244.8
x2 = 0.7983 | 800.8 | 1248.2

CCCCCC [hexane]
Conditions | speed of sound [m/s]
[1] | 1098.9

CCCCCC [hexane] + CCCCO
[2]
Conditions | mass density [kg/m3] | speed of sound [m/s]
x2 = 0.00305 | 659.9 | 1099
x2 = 0.04764 | 664.4 | 1099.2
x2 = 0.1026 | 670.3 | 1099.8
x2 = 0.1225 | 672.4 | 1100.5
x2 = 0.1509 | 675.6 | 1101.6
x2 = 0.2261 | 684.4 | 1105.9
x2 = 0.2979 | 693.4 | 1112.1
x2 = 0.4965 | 720.9 | 1140
x2 = 0.6128 | 738.8 | 1160.2
x2 = 0.6817 | 750.1 | 1174
x2 = 0.7658 | 764.5 | 1192.1
x2 = 0.8937 | 788.1 | 1224.5
